Measured values: ChEMBL document CHEMBL5360522, “Design, Synthesis, and Biological Evaluation of New 1H-Imidazole-2-Carboxylic Acid Derivatives as Metallo-β-Lactamase Inhibitors” (Bioorg Med Chem, 2022)
pIC50: −log10 of the molar value.

Legend:
[1] = target: Metallo-beta-lactamase type 2 (Bacteria, UniProt C7C422); assay: Inhibition of NDM-1 (1 to 270 residues) (unknown origin) expressed in Escherichia coli Transetta (DE3) using FC5 as fluorescence substrate preincubated for 10 mins followed by substrate addition by microplate reader analysis
Chain of Metallo-beta-lactamase type 2 (C7C422 whole entry, the tested form may be a part): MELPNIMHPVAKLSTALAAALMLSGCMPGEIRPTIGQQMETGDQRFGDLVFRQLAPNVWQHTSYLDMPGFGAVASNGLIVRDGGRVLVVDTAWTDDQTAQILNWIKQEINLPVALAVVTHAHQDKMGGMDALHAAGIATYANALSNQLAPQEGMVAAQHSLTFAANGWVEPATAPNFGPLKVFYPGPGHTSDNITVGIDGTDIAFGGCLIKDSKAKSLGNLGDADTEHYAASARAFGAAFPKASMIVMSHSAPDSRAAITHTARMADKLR

[2] = Inhibition of N-terminal His-6 tagged VIM-2 (27 to 266 residues) (unknown origin) expressed in Escherichia coli Transetta (DE3) using FC5 as fluorescence substrate preincubated for 10 mins followed by substrate addition by microplate reader analysis; design: species or system Bacteria
Escherichia coli [3] = assay: Antibacterial activity against Escherichia coli C1541 expressing VIM-2 assessed as meropenem MIC at 10 ug/ml incubated for 16 to 18 hrs in presence of meropenem by two-fold serial dilution method; type: functional; details: dose 10 µg/ml, time 16-18 hrs
[4] = Inhibition of Metallo-beta-lactamase VIM-1 (unknown origin) using FC5 as fluorescence substrate preincubated for 10 mins followed by substrate addition by microplate reader analysis
[5] = Inhibition of Metallo-beta-lactamase VIM-5 (unknown origin) using FC5 as fluorescence substrate preincubated for 10 mins followed by substrate addition by microplate reader analysis
Escherichia coli [6] = assay: Antibacterial activity against Escherichia coli C1541 expressing IMP-1 assessed as meropenem MIC at 10 ug/ml incubated for 16 to 18 hrs in presence of meropenem by two-fold serial dilution method; type: functional; details: dose 10 µg/ml, time 16-18 hrs
Escherichia coli [7] = assay: Antibacterial activity against Escherichia coli C1542 expressing VIM-2 assessed as meropenem MIC at 10 ug/ml incubated for 16 to 18 hrs in presence of meropenem by two-fold serial dilution method; type: functional; details: dose 10 µg/ml, time 16-18 hrs
[8] = Inhibition of Metallo-beta-lactamase IMP-1 (unknown origin) using FC5 as fluorescence substrate preincubated for 10 mins followed by substrate addition by microplate reader analysis

| Compound | pIC50 [1] | pIC50 [2] | MIC (Escherichia coli [3]) | pIC50 [4] | pIC50 [5] | MIC (Escherichia coli [6]) | MIC (Escherichia coli [7]) | pIC50 [8] |
| --- | --- | --- | --- | --- | --- | --- | --- | --- |
| O=C(O)c1nccn1Cc1ccccc1 | 4.20 | 6.32 | 16 µg/mL | 5.38 | 5.81 | 8 µg/mL | 16 µg/mL | 4.49 |
| O=C(O)c1nccn1Cc1ccncc1 | < 3.52 | 6.25 | ≤ 0.25 µg/mL | 4.53 | 5.24 | 8 µg/mL | ≤ 0.25 µg/mL | < 3.52 |
| O=C(O)c1nc2ccccc2n1Cc1ccccc1 | < 4.00 | < 3.52 | – | < 4.00 | – | – | – | < 4.00 |
| O=C(O)c1nccn1CCc1cccc(F)c1 | < 4.00 | 6.96 | – | 5.44 | 6.18 | – | – | 3.36 |
| O=C(O)c1nccn1CCc1cccc2ccccc12 | 4.13 | 7.15 | ≤ 0.25 µg/mL | 5.38 | 5.97 | 8 µg/mL | ≤ 0.25 µg/mL | 4.29 |
| O=C(O)c1ncsc1Cc1ccccc1 | 4.36 | 5.69 | – | 5.20 | 5.36 | – | – | 5.11 |
| O=C(O)c1nccn1CCc1ccc(-c2ccc3ccccc3c2)cc1 | < 4.00 | 5.30 | – | 4.01 | 6.66 | – | – | 3.70 |
| O=C(O)c1ncsc1CCc1ccccc1F | < 4.00 | 7.46 | – | 5.74 | 5.93 | – | – | 3.92 |
| O=C(O)c1nccn1CCc1ccc2ccccc2c1 | < 4.00 | 7.64 | 0.5 µg/mL | 5.15 | 6.85 | 8 µg/mL | ≤ 0.25 µg/mL | 4.33 |
| CCC(c1ccccc1)n1ccnc1C(=O)O (centres undefined) | < 3.52 | 5.56 | – | 4.51 | 5.59 | – | – | < 3.52 |
| Cc1ncsc1CCn1ccnc1C(=O)O | < 4.00 | 6.70 | – | 4.50 | 5.70 | – | – | < 4.00 |
| O=C(O)c1ncsc1CCc1ccc(Br)cc1 | < 4.00 | 7.00 | – | 5.08 | 6.36 | – | – | < 4.00 |
| O=C(O)c1nccn1CCc1ccc(-c2cccs2)cc1 | 3.90 | 7.74 | ≤ 0.25 µg/mL | 5.40 | 7.74 | 8 µg/mL | ≤ 0.25 µg/mL | 4.19 |
| O=C(O)c1nccn1CCc1ccc(-c2ccncc2)cc1 | 4.26 | 6.96 | – | 5.66 | 6.77 | – | – | 4.99 |
| Cc1ccc(CCn2ccnc2C(=O)O)cc1 | < 4.00 | 6.32 | – | 4.80 | 5.20 | – | – | < 4.00 |
| O=C(O)c1nccn1CCc1cccs1 | < 4.00 | 6.92 | – | 5.97 | 6.19 | – | – | 5.10 |
| COc1cccc(CCc2scnc2C(=O)O)c1 | 4.52 | 7.55 | – | 5.32 | 5.49 | – | – | 4.21 |
| O=C(O)c1ncsc1CCc1ccc(C(F)(F)F)cc1 | < 4.00 | 6.68 | – | 4.84 | 5.81 | – | – | 4.06 |
| O=C(O)c1nccn1CCc1ccc(Cl)cc1 | < 4.00 | 7.00 | – | 5.08 | 6.36 | – | – | < 4.00 |
| COc1ccc(CCn2ccnc2C(=O)O)cc1OC | < 4.00 | 6.51 | – | 4.12 | 4.82 | – | – | 3.49 |
| O=C(O)c1ncsc1CCc1cccc(Br)c1 | < 4.00 | 7.62 | – | 5.79 | 5.84 | – | – | < 4.00 |
| O=C(O)c1ncsc1CCc1ccc(F)cc1 | < 4.00 | 7.33 | – | 5.39 | 6.39 | – | – | 4.25 |
| O=C(O)c1nccn1CCc1ccc(-c2cccc3ccccc23)cc1 | ~3.70 | 5.84 | – | < 4.00 | 7.05 | – | – | ~4.17 |
| COc1cccc(CCn2ccnc2C(=O)O)c1 | < 4.00 | 6.42 | – | 5.03 | 4.97 | – | – | 4.15 |
| O=C(O)c1nccn1CCc1ccc([N+](=O)[O-])cc1 | < 4.00 | 7.40 | ≤ 0.25 µg/mL | 5.32 | 6.82 | 8 µg/mL | ≤ 0.25 µg/mL | < 4.00 |

| Compound | pIC50 [1] | pIC50 [2] | MIC (Escherichia coli [3]) | pIC50 [4] | pIC50 [5] | MIC (Escherichia coli [6]) | MIC (Escherichia coli [7]) | pIC50 [8] |
| --- | --- | --- | --- | --- | --- | --- | --- | --- |
| O=C(O)c1ncsc1CCc1cccc(C(F)(F)F)c1 | < 4.00 | 6.25 | – | 5.68 | 5.57 | – | – | 3.95 |
| COc1ccc(CCn2ccnc2C(=O)O)cc1 | < 4.00 | 6.46 | – | 4.47 | 5.79 | – | – | 5.35 |
| O=C(O)c1nccn1CCCc1ccccc1 | < 4.00 | 6.20 | – | 6.20 | 6.08 | – | – | 4.97 |
| O=C(O)c1nccn1CCc1cccc(Cl)c1 | < 4.00 | 7.05 | – | 6.02 | 3.96 | – | – | < 4.00 |
| O=C(O)c1ncoc1Cc1ccccc1 | < 4.00 | 4.38 | – | < 4.00 | 4.93 | – | – | < 4.00 |
| O=C(O)c1nncn1Cc1ccccc1 | < 4.00 | < 4.00 | – | – | – | – | – | – |
| O=C(O)c1nccn1CCc1ccccn1 | 4.72 | 6.70 | – | 5.42 | 6.15 | – | – | < 4.00 |
| O=C(O)c1nccn1CCNS(=O)(=O)c1ccccc1 | < 4.00 | 5.23 | – | < 4.00 | 4.20 | – | – | < 4.00 |
| O=C(O)c1ncsc1CCc1ccc(C(c2ccccc2)(c2ccccc2)c2ccccc2)cc1 | < 4.00 | 6.64 | – | 5.02 | 6.19 | – | – | 4.33 |
| Nc1ccc(CCn2ccnc2C(=O)O)cc1 | < 4.00 | 6.48 | – | 5.43 | 6.35 | – | – | 5.31 |
| O=C(O)c1ncsc1CCc1ccccc1 | 4.08 | 6.66 | – | 6.38 | 6.37 | – | – | 5.53 |
| Cc1c(C(=O)O)ncn1Cc1ccccc1 | < 4.00 | < 4.00 | – | < 4.00 | < 4.00 | – | – | < 4.00 |
| O=C(O)c1ncn(Cc2ccccc2)n1 | < 4.00 | < 4.00 | – | – | – | – | – | – |
| O=C(O)c1nccn1CCc1ccc2c(c1)CCO2 | < 4.00 | 6.32 | – | 3.72 | 4.02 | – | – | < 4.00 |
| CC(Cn1ccnc1C(=O)O)c1ccccc1 (centres undefined) | 3.69 | 6.72 | – | 5.48 | 5.97 | – | – | 3.58 |
| O=C(O)c1nccn1CCc1ccc(Br)cc1 | < 4.00 | 7.22 | – | 5.46 | 7.00 | – | – | < 4.00 |
| O=C(O)c1nccn1CCOc1ccccc1 | < 4.00 | 5.26 | – | 4.84 | 6.28 | – | – | < 4.00 |
| O=C(O)c1nccn1CCS(=O)(=O)c1ccccc1 | < 4.00 | 5.54 | – | 3.95 | 5.35 | – | – | < 4.00 |
| O=C(O)c1nccn1CCc1ccccc1 | 3.52 | 6.96 | – | 5.63 | 5.80 | – | – | 3.32 |
| O=C(O)c1nccn1C(C(=O)O)c1ccccc1 (centres undefined) | < 3.52 | 5.13 | 16 µg/mL | < 3.52 | 5.03 | 8 µg/mL | 16 µg/mL | 5.80 |
| CC(c1ccccc1)n1ccnc1C(=O)O (centres undefined) | < 3.70 | 6.12 | – | 5.09 | 5.42 | – | – | 5.39 |
| O=C(O)c1nccn1CCc1ccc(-c2ccccc2)cc1 | 4.59 | 7.22 | 0.5 µg/mL | 5.63 | 6.74 | 8 µg/mL | ≤ 0.25 µg/mL | 4.67 |
| O=C(Cn1ccnc1C(=O)O)c1ccccc1 | < 3.52 | 6.20 | – | 5.30 | 5.73 | – | – | < 4.00 |
| O=C(O)c1ncnn1Cc1ccccc1 | < 4.00 | < 4.00 | – | – | – | – | – | – |
| O=C(O)c1nccn1CCc1ccc(F)cc1 | < 4.00 | 6.85 | – | 5.51 | 5.71 | – | – | < 4.00 |
